One test concerns Sphaerotheca fuliginea. It counts as in vivo.
The subject of the next test is Erysiphe graminis. In words: Test on preventive effect against wheat powdery mildew (Test Example 1). In kind it is in vivo.
Setting [1] is: partner fungicide alone 125 ppm.
The mark [2] stands for this setting: partner fungicide alone 250 ppm.
Where [3] appears, read: partner fungicide alone 500 ppm.

Several values for one entry are separate records, joined by “and”; a condition that tells them apart may be missing. Identical values can stand only once. Counter-ions that a name gives are not always drawn. Like-named read-outs stand apart in the source and are kept apart here.

Results on 22 compounds are retold here after patent US8568755B2 (priority 2007, dated 2013).

As for `CCCOC(=O)NCCCN(C)C` [propamocarb hydrochloride], the entries for the “diseased area ratio to non-treated section (experimental value)” value in the test with Sphaerotheca fuliginea (single use at 10 ppm), with Sphaerotheca fuliginea (single use at 100 ppm) and in the test with Sphaerotheca fuliginea (single use at 1000 ppm) were 95.0, 95.0 and 92.5, respectively.
Regarding `CC(C)(C)C(O)(CCc1ccc(Cl)cc1)Cn1cncn1` (stereo not shown) [tebuconazole], the “diseased area ratio to non-treated section” value stood at 10.0 with Erysiphe graminis (fungicide (b) alone 0.5 ppm) and 5.0 with Erysiphe graminis (fungicide (b) alone 1 ppm).
As for `CCCOC/C(=N\c1ccc(Cl)cc1C(F)(F)F)n1ccnc1` [triflumizole], the “diseased area ratio to non-treated section” value came to 85 with Sphaerotheca fuliginea (partner fungicide alone 3 ppm) and 70 in the test with Sphaerotheca fuliginea (partner fungicide alone 12 ppm).
Consider `CC(C)Oc1ccc(C(=O)C(C)(C)NC(=O)c2ncccc2C(F)(F)F)cc1` [No. 7], for which the “diseased area ratio to non-treated section” value in the test on Sphaerotheca fuliginea (Compound No.x alone 1 ppm) stood at 81.3; with Sphaerotheca fuliginea (Compound No.x alone 2 ppm) it was 75.0; in the test on Sphaerotheca fuliginea (Compound No.x alone 4 ppm), 56.3.
For the compound `Cc1cccc2sc3nncn3c12` [tricyclazole], the “diseased area ratio to non-treated section” value with Erysiphe graminis (fungicide (b) alone 50 ppm) is given as 22.5; with Erysiphe graminis (fungicide (b) alone 500 ppm), 50.0.
With `CON=C(C(=O)OC)c1ccccc1CON=C(C)c1cccc(C(F)(F)F)c1` [trifloxystrobin], the “diseased area ratio to non-treated section” value in the test on Sphaerotheca fuliginea (partner fungicide alone 4 ppm) was determined as 85.0; in the test with Sphaerotheca fuliginea (partner fungicide alone 200 ppm), 50.0. Moreover, the entries for the “diseased area ratio to non-treated section (experimental value)” value in the test with Sphaerotheca fuliginea (single use at 4 ppm) and in the test with Sphaerotheca fuliginea (single use at 200 ppm) were 85.0 and 50.0, respectively.
For the compound `CC(=O)c1c(C)c(C)nc2c(F)cc(C(C)(C)C)cc12` [compound β, 2,3-dimethyl-6-t-butyl-8-fluoro-4-acetylquinoline], the “diseased area ratio to non-treated section” value with Erysiphe graminis (fungicide (b) alone 10 ppm) worked out at 95.0.
In the case of `Cc1cc(C2CC2)nc(Nc2ccccc2)n1` [cyprodinil], the “diseased area ratio to non-treated section” value with Erysiphe graminis (fungicide (b) alone 31 ppm) stood at 75.0; in the test on Erysiphe graminis (fungicide (b) alone 63 ppm) it was 70.0; in the test on Erysiphe graminis (fungicide (b) alone 125 ppm), 32.5.
For the compound `CC(C)NC(=O)N1CC(=O)N(c2cc(Cl)cc(Cl)c2)C1=O` [iprodione], the “diseased area ratio to non-treated section” value in the test on Sphaerotheca fuliginea (setting [1]) is given as 60.0; in the test on Sphaerotheca fuliginea (setting [2]) it was 45.0; in the test on Sphaerotheca fuliginea (setting [3]) it was 45.0.
With `CCCCC(O)(Cn1cncn1)c1ccc(Cl)cc1Cl` (stereo not shown) [hexaconazole], the figures for the “diseased area ratio to non-treated section” value in the test on Sphaerotheca fuliginea (partner fungicide alone 2 ppm), in the test with Sphaerotheca fuliginea (partner fungicide alone 4 ppm) and with Sphaerotheca fuliginea (partner fungicide alone 8 ppm) were 95.0, 85.0 and 75.0, respectively.
With `Cc1cc(O)no1` [hymexazol], in the test with Sphaerotheca fuliginea (partner fungicide alone 100 ppm), the “diseased area ratio to non-treated section” value was 95.0.
Take `N#Cc1c(Cl)c(Cl)c(Cl)c(C#N)c1Cl` [chlorothalonil]: the “diseased area ratio to non-treated section” value is listed as 77.5 in the test on Sphaerotheca fuliginea (partner fungicide alone 4 ppm) and 37.5 with Sphaerotheca fuliginea (partner fungicide alone 16 ppm).
As for `CC1(C(=O)Nc2ccc(O)c(Cl)c2Cl)CCCCC1` [fenhexamid], the “diseased area ratio to non-treated section” value in the test on Sphaerotheca fuliginea (setting [1]) was 52.5; with Sphaerotheca fuliginea (setting [2]) it was 52.5; in the test on Sphaerotheca fuliginea (setting [3]) it was 50.0.
With `Cc1ccc(-c2c(Cl)nc(C#N)n2S(=O)(=O)N(C)C)cc1` [cyazofamid, reference compound], the “diseased area ratio to non-treated section” value with Sphaerotheca fuliginea (fungicide (b) alone 63 ppm) was 80.0; in the test on Sphaerotheca fuliginea (fungicide (b) alone 125 ppm), 57.5; in the test with Sphaerotheca fuliginea (partner fungicide alone 63 ppm) it was 70.0; with Sphaerotheca fuliginea (setting [1]), 57.5.
Turning to `O=C1c2ccccc2C(=O)N1SC(Cl)(Cl)Cl` [folpet], the “diseased area ratio to non-treated section” value in the test with Sphaerotheca fuliginea (setting [1]) stood at 84.4; in the test on Sphaerotheca fuliginea (setting [2]), 84.4; in the test on Sphaerotheca fuliginea (setting [3]) it was 81.3.
For `CC1COC(Cn2cncn2)(c2ccc(Oc3ccc(Cl)cc3)cc2Cl)O1` (stereo not shown) [difenoconazole], the results for the “diseased area ratio to non-treated section” value in the test with Sphaerotheca fuliginea (partner fungicide alone 8 ppm), in the test with Sphaerotheca fuliginea (partner fungicide alone 16 ppm) and with Sphaerotheca fuliginea (partner fungicide alone 31 ppm) were 31.3, 9.4 and 8.1, respectively.
Consider `O=C([O-])O.[K+]` [potassium bicarbonate], for which the “diseased area ratio to non-treated section (experimental value)” value with Sphaerotheca fuliginea (single use at 100 ppm) was found to be 25.0; in the test with Sphaerotheca fuliginea (single use at 1000 ppm) it was 20.0.
Consider `Cc1cc(C)nc(Nc2ccccc2)n1` [pyrimethanil], for which the “diseased area ratio to non-treated section” value in the test with Sphaerotheca fuliginea (partner fungicide alone 25 ppm) worked out at 90.0.
With mancozeb, the “diseased area ratio to non-treated section” value in the test with Sphaerotheca fuliginea (setting [1]) was 50.0; in the test on Sphaerotheca fuliginea (setting [2]), 31.3.
For `COC(=O)N(OC)c1ccccc1COc1ccn(-c2ccc(Cl)cc2)n1` [pyraclostrobin], the “diseased area ratio to non-treated section (experimental value)” value with Sphaerotheca fuliginea (single use at 100 ppm) turned out to be 100.
`C/C=C/C(=O)Oc1c(C(C)CCCCCC)cc([N+](=O)[O-])cc1[N+](=O)[O-]` (stereo not shown) [meptyldinocap]: the “diseased area ratio to non-treated section (experimental value)” value in the test on Sphaerotheca fuliginea (single use at 3 ppm) is listed as 2.5.
As to `CO/C=C(/C(=O)OC)c1ccccc1Oc1cc(Oc2ccccc2C#N)ncn1` [azoxystrobin], the “diseased area ratio to non-treated section” value in the test with Sphaerotheca fuliginea (partner fungicide alone 31 ppm) was 37.5 and 55.0; in the test on Sphaerotheca fuliginea (partner fungicide alone 63 ppm) it was 35.0 and 55.0; with Sphaerotheca fuliginea (setting [1]), 35.0.
